# Laboratory results: patent publication EP1976513B1 (priority 2006, dated 2007)
# Counter-ions that a name gives are not always drawn. Like-named read-outs stand apart in the source and are kept apart here.
# Columns and labels:
# [1] = biological target: T1, norepinephrine transporter (Rattus norvegicus, UniProt Q63380); test: biochemical; type: biochemical; conditions: rat synaptosomes, norepinephrine transporter (NET)
# T1 construct: synaptosomes isolated in a 0.32 M sucrose buffer from a male Wistar rat hypothalamus; from tissue; host or cells: male Wistar rat hypothalamus synaptosomes
# T1 sequence (Q63380 1-617): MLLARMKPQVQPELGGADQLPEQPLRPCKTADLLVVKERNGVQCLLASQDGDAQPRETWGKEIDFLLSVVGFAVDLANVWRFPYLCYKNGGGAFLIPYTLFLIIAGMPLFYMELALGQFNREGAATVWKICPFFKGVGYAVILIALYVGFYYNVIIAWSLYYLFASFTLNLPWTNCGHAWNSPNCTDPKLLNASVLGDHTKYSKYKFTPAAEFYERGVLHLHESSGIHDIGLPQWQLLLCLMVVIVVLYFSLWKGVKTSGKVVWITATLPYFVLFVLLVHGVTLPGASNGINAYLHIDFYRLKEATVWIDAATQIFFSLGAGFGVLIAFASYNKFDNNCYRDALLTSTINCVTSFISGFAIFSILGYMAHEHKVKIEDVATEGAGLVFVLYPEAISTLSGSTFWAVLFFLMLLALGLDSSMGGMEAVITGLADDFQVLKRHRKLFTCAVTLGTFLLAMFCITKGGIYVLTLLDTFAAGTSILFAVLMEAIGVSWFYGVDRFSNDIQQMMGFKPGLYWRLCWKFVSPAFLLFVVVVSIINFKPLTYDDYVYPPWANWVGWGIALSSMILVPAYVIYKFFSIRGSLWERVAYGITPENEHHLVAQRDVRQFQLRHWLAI
# dopamine transporter = biological target: T2, dopamine transporter (Rattus norvegicus, UniProt P23977); test: biochemical; conditions: rat synaptosomes, dopamine transporter (DAT)
# T2 construct: synaptosomes isolated in a 0.32 M sucrose buffer from a male Wistar rat striatum; from tissue; host or cells: male Wistar rat striatum synaptosomes
# T2 sequence (P23977 whole entry): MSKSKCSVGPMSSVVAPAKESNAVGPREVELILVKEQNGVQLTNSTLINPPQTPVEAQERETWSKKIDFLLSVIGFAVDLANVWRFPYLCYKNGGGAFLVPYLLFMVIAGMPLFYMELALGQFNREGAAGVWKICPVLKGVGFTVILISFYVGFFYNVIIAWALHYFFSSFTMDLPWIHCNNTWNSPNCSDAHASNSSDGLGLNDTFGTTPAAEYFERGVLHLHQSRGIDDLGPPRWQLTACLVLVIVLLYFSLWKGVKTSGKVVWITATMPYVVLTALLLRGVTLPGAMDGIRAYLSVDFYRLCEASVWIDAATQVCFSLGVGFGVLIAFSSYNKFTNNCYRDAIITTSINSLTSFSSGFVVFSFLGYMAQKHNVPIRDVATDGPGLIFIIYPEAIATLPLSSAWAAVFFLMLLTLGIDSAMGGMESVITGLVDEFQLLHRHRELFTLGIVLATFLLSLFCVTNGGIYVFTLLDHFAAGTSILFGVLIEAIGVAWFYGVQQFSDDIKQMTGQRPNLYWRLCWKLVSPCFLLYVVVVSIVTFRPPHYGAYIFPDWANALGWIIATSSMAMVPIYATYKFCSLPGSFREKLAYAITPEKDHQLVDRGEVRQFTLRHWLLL
# serotonin transporter = biological target: T3, serotonin transporter (Rattus norvegicus, UniProt P31652); test: biochemical; conditions: rat synaptosomes, serotonin transporter (SERT)
# T3 construct: synaptosomes isolated in a 0.32M sucrose buffer from a male Wistar rat cortex; from tissue; host or cells: male Wistar rat cortex synaptosomes
# T3 sequence (P31652 whole entry): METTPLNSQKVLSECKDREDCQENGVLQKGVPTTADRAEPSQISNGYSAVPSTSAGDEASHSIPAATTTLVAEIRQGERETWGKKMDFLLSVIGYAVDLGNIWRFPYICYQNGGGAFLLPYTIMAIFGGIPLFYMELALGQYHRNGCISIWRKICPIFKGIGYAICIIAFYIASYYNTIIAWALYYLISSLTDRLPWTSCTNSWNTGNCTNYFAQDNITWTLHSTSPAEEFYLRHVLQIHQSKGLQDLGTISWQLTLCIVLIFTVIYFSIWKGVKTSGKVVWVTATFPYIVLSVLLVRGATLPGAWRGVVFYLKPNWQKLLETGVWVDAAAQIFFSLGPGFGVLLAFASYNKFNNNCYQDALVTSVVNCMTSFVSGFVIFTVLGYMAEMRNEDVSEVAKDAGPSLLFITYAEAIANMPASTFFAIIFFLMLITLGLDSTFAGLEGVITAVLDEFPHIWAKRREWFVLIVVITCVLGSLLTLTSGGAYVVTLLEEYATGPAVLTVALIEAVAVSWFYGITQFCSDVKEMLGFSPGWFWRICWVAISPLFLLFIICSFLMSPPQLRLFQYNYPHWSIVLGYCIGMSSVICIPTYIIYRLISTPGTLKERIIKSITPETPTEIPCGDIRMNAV
# [2] = biological target: T4, human dopamine reuptake transporter (Homo sapiens, UniProt Q01959); test: cell-based; conditions: recombinant human dopamine transporter (DAT); read-out: Human IC50 (nM) hDAT
# T4 construct: expressed in transfected cells; host or cells: CHO-K1 or HEK293
# T4 sequence (Q01959 whole entry): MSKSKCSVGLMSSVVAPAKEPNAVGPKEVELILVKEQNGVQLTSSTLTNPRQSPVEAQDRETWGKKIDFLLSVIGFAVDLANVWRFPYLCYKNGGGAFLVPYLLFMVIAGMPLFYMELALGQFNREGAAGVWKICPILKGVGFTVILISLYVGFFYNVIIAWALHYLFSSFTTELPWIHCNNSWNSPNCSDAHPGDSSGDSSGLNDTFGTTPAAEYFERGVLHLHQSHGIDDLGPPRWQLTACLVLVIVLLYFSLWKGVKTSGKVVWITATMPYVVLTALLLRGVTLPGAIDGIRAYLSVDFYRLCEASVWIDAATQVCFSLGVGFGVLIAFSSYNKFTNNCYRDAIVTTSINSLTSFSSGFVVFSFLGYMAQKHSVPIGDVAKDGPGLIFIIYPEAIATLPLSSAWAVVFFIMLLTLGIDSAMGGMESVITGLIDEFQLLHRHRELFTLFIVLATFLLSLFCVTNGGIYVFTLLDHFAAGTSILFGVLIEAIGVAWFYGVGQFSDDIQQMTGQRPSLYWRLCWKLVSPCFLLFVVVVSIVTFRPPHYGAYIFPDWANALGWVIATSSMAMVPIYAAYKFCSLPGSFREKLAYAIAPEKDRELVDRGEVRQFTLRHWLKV
# [3] = biological target: human norepinephrine reuptake transporter (Homo sapiens, UniProt P23975); test: cell-based; conditions: recombinant human norepinephrine transporter (NET); read-out: Human IC50 (nM) hNET
# Sequence of human norepinephrine reuptake transporter (P23975 whole entry): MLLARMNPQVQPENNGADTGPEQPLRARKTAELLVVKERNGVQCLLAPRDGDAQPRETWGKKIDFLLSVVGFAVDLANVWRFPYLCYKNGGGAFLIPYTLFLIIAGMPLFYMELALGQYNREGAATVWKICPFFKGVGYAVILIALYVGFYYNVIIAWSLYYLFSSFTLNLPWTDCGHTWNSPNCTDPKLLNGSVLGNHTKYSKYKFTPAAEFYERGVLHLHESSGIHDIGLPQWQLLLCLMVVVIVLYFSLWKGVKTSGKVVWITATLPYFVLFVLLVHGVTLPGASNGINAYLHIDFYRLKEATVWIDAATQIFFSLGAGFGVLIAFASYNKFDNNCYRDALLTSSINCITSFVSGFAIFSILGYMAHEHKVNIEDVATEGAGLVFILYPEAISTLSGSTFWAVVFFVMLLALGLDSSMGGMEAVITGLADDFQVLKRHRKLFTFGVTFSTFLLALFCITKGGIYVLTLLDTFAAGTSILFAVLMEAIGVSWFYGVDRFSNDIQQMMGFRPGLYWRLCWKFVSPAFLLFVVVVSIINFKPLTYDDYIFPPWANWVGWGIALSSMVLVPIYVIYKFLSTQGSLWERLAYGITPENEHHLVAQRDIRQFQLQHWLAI
# [4] = biological target: human serotonin reuptake transporter (Homo sapiens, UniProt P31645); test: cell-based; conditions: recombinant human serotonin transporter (SERT)
# Sequence of human serotonin reuptake transporter (P31645 whole entry): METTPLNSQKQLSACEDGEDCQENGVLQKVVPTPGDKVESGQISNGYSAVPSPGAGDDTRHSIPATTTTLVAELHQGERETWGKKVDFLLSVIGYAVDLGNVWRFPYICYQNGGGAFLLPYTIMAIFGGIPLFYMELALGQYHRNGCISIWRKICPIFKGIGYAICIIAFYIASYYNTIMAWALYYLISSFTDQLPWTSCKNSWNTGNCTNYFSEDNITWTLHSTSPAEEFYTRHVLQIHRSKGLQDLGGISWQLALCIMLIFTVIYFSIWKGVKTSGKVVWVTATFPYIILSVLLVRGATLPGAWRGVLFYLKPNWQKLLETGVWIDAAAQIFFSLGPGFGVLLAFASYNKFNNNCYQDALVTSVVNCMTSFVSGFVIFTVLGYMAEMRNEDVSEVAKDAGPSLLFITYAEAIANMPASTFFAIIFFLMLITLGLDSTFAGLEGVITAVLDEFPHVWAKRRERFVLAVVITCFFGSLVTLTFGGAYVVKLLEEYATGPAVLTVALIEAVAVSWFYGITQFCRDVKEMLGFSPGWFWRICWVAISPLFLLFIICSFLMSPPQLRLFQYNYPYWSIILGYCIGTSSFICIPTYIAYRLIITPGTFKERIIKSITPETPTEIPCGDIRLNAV
# [5] = read-out: Human IC50 (nM) hSERT
Structure (SMILES),IC50 [2],IC50 [3],"IC50 [4, 5]",also measured
"CC(N(C)C)C1(c2ccc3ccccc3c2)CCCCC1 (single isomer, unassigned) [56 E2, N,N-dimethyl-1-(1-(naphthalen-2-yl)cyclohexyl)ethanamine]",–,–,–,IC50 ([1]; Rat IC50 (nM) rNET): 79 nM; IC50 (dopamine transporter; Rat IC50 (nM) rDAT): 100 nM; IC50 (serotonin transporter; Rat IC50 (nM) rSERT): 120 nM
"CNC[C@@]1(c2ccc3ccccc3c2)CCCC[C@H]1O (single isomer, unassigned) [147 E1]",–,–,–,IC50 ([1]; read-out: Rat IC50 (nM) rNET): 370 nM; IC50 (dopamine transporter; read-out: Rat IC50 (nM) rDAT): 1200 nM; IC50 (serotonin transporter; read-out: Rat IC50 (nM) rSERT): 18 nM
"CNC[C@]1(c2ccc3ccccc3c2)CCCC[C@@H]1O (single isomer, unassigned) [147 E2]",–,–,–,IC50 ([1]; read-out: Rat IC50 (nM) rNET): 1200 nM; IC50 (dopamine transporter; read-out: Rat IC50 (nM) rDAT): 1500 nM; IC50 (serotonin transporter; read-out: Rat IC50 (nM) rSERT): 1700 nM
"CNC[C@@]1(c2ccc3ccccc3c2)CCCC[C@@H]1O (single isomer, unassigned) [148 E2]",–,–,–,IC50 ([1]; read-out: Rat IC50 (nM) rNET): 4900 nM; IC50 (dopamine transporter; read-out: Rat IC50 (nM) rDAT): 680 nM; IC50 (serotonin transporter; read-out: Rat IC50 (nM) rSERT): 330 nM
"NCC1(c2ccc(F)c(F)c2)CCCCC1 [Compound 30, (1-(3,4-difluorophenyl)cyclohexyl)methanamine hydrochloride]",5870 nM,> 10000 nM,4520 nM,–
"NCC1(c2ccccc2)CCCCC1 [Compound 31, (1-phenylcyclohexyl)methaneamine hydrochloride]",> 10000 nM,> 10000 nM,> 10000 nM,–
"NCC1(c2ccc(Cl)cc2Cl)CCCCC1 [Compound 38, (1-(2,4-dichlorophenyl)cyclohexyl)methanamine]",9650 nM,> 10000 nM,–,IC50 ([4]; Human IC50 (nM) hSERT): 472 nM
"CNCC1(c2ccccc2)CCCCC1 [Compound 80, N-methyl(1-phenylcyclohexyl)methanamine (hydrochloride)]",> 10000 nM,> 10000 nM,9170 nM,–
"CC1(O)CCC(CN)(c2ccc3ccccc3c2)CC1 (stereo not drawn) [Compound 209, 4-(aminomethyl)-1-methyl-4-(naphthalen-2-yl)cyclohexanol]",4760 nM,> 10000 nM,1160 nM,–
"CC1(O)CCC(CN)(c2ccc(OC(F)(F)F)cc2)CC1 (stereo not drawn) [Compound 219, 4-(aminomethyl)-1-methyl-4-(4-(trifluoromethoxy)phenyl)-cyclohexanol]",> 10000 nM,> 10000 nM,269 nM,–
"CNCC1(c2ccc3c(c2)OCO3)CCC(O)CC1 (stereo not drawn) [Compound 237, 4-(benzo[d][1,3]dioxol-5-yl)-4-((methylamino)methyl)cyclohexanol]",9130 nM,> 10000 nM,7300 nM,–
"CNCC1(c2ccc(OC(F)(F)F)cc2)CCC(O)CC1 (stereo not drawn) [Compound 249, 4-((methylamino)methyl)-4-(4-(trifluoromethoxy)phenyl)cyclohexanol]",> 10000 nM,> 10000 nM,405 nM,–
"CN(C)CC1(c2ccc(Cl)c(Cl)c2)CCC(F)(F)CC1 [Compound 269, 1-(1-(3,4-dichlorophenyl)-4,4-difluorocyclohexyl)-N,N-dimethylmethanamine]",< 1 nM,36 nM,787 nM,–
